Data reported in article PMC10906223 (JCI Insight, 2024).
Where “and” joins values, the source holds several entries; their conditions need not be identical. Equal entries are not always repeated.

Experiments:
[1] = test system: nondiabetic NOD mice; experiment: Blood glucose in nondiabetic NOD mice under WCDD301 dosing; assay type: in vivo, mouse; set-up: Blood glucose (Supplemental Figure 6B): unit: mg/dL; conditions: for Blood glucose (Supplemental Figure 6B): WCDD301-treated, individual mice M1-M5
Procedure: (§1) We applied the following therapeutic regimens in the fed state for oral dosing of pearls containing WCDD301. The therapeutic regimen for diabetic NOD mice with moderate hyperglycemia (n = 6–9; 6 females/3 males) or nondiabetic ones with blood glucose levels of < 140 mg/dL (females, n = 5) was dose 7.5 mg/kg, dosage once a day, and excipient SAIB-Agar, 50–60 mg. The therapeutic regimen for STZ-induced diabetic mice with early severe hyperglycemia (n = 3, placebo group; n = 4 treatment group, females) was dose 10 mg/kg, dosage once a day, and excipient SAIB-Agar-malic acid, 50–60 mg.

[2] = test system: mouse dispersed islet cells; experiment: Immunofluorescence: F-actin intensity in glucagon+ mouse dispersed islet cells; assay type: cell-based;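 for F-actin intensity: ImageJ intensity within ROI drawn around each glucagon+ cell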
Procedure: (§2) Coverslips were treated with WCDD301, preclustered Ephrin-A5 Fc, or preclustered Fc in the following sequential order: KRBH (11 mM glucose, 30 minutes), KRBH (1 mM glucose, 60 minutes), KRBH (1 mM glucose, 30 minutes), and KRBH (11 mM glucose, 60 minutes). After treatment, coverslips were washed once in PBS, fixed in 2% paraformaldehyde in PBS (30 minutes), and again washed in PBS. […] Following wash in PBS, coverslips were incubated in a mixture of Alexa Fluor 555 Phalloidin (Cell Signaling Technology, catalog 8953) and secondary antibodies (goat anti-rabbit Alexa Fluor 488, catalog A-21094, 1:1,000, Molecular Probes; and goat anti-mouse Alexa Fluor 633, catalog A21052, 1:1,000, Life Technologies) for 1 hour at RT. Both primary and secondary antibodies were diluted in blocking buffer containing 0.05% Tween 20. Coverslips were washed using PBS and counterstained by using DAPI (1:1,000) for 10 minutes. Following 2 washes in PBS, coverslips were mounted on glass slides using ProLong Glass Antifade Mountant (Invitrogen, catalog P36980). Images were captured using the Zeiss LSM880 microscope with a Plan-Apochromat 63× 1.4 NA objective lens by setting dual-band dichroic/filter for 405, 488, 561, and 633 nm laser excitation. For each slide, 25–30 fields of view were scanned, and in each field of view, 3–5 cells were imaged. […] Values of intensity were compared among groups using 1-way ANOVA, α = 0.05.

[3] = test system: STZ-induced diabetic mice; experiment: Blood glucose in STZ-induced diabetic mice, once-daily oral WCDD301; assay type: in vivo, mouse; set-up: Blood glucose: unit: mg/dL; conditions: for Blood glucose: WCDD301 10 mg/kg oral once daily, 10 mg/kg
Procedure: Six cohorts of C57BL/6 mice (n = 10 each, equal numbers of females and males; the Jackson Laboratory) were fasted for 5 hours and injected intraperitoneally with 40 mg/kg STZ solution (MilliporeSigma, catalog 572201) for 5 consecutive days. STZ solution (40 mg/mL) was prepared within 5 minutes before injection using freshly prepared citrate buffer (0.1 M, pH 4.5). Nine days after the last injection, blood glucose levels were measured for 2 consecutive days, and those animals with constant values of 300 ± 20 mg/dL were considered as having early severe hyperglycemia.
We prepared sustained time-release pearls for oral administration in the mouse models. To this end, we combined FDA-approved excipients of Eastman BioSustane SAIB NF (product code: 41271-00, sample distribution from Eastman Company, Kingsport, Tennessee, USA; provided by Phillip Cook) and Agar (Lamda Biotech, catalog C110) at the ratio of 1:1.45 (w/w). We also prepared another type of sustained time-release pearl by mixing SAIB, Agar, and L (-) malic acid (MilliporeSigma, catalog 202-601-5) at the ratio of 1:1.4:0.2 (w/w/w). A homogenous paste mixture was prepared, and pearls were formed with 50–60 mg weight and approximately 2 mm diameter by pinching off the mixture and manually rolling.
(§3) We preweighed WCDD301 into microfuge tubes and reconstituted it using deionized water. Using a 10 μL pipette tip, we placed the calculated dose of WCDD301 (at the volume range of 1–1.5 μL) within the center of pearls. WCDD301 was placed into pearls 30–45 minutes before administration. For oral administration of pearls, we designed an applicator using a disposable plastic transfer pipette and syringe plunger lubricated with olive oil. Food intake and body weight in each experimental group (diabetic WCDD301-treated, diabetic placebo-treated, and nondiabetic placebo-treated NOD mice) were monitored daily for 4 weeks. Urine glucose was measured from individually caged NOD mice (nondiabetic placebo treated n = 2, diabetic placebo treated n = 2, and diabetic WCDD301 treated n = 4, 21–23 weeks old) with metabolic cages. Urine glucose was monitored every 24 hours for 10 days by semiquantitative measurements (P-STICKS, Millpledge Veterinary).
as §1

[4] = test system: mouse dispersed islet cells; experiment: Immunofluorescence: EphA4 intensity in glucagon+ mouse dispersed islet cells; assay type: cell-based;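 for EphA4 intensity: ImageJ intensity within ROI drawn around each glucagon+ cell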
Procedure: as §2

[5] = test system: diabetic NOD mice; experiment: Daily food intake in NOD mice; assay type: in vivo, mouse; set-up: Daily food intake (Figure 7E): unit not given here; conditions: for Daily food intake (Figure 7E): Diabetic, WCDD301 treated
Procedure: as §3

[6] = test system: isolated islets of donors with T1D; experiment: Insulin secretion from isolated islets of donors with T1D; assay type: cell-based, human; conditions: for Secretion of insulin: isolated islets, T1D donors, one value per donor, Figure 2I;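 for Secretion of insulin: insulin concentration in collected medium by Lumit immunoassay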
Procedure: The Integrated Islet Distribution Program provided us human donor islets with their characteristics (Supplemental Table 6). Islets were centrifuged at 500g for 3 minutes, resuspended in CMRL 1066 medium (Gibco, catalog 1150-037) containing 11 mM glucose, and rested in an incubator overnight.
For the hormone secretion assay, islets or dispersed islet cells were adapted in KRBH buffer containing 11 mM glucose for 1 hour. Then, after 2 washes in HBSS containing 11 mM glucose, islets or cells were treated in the following sequential order in the presence or absence of WCDD301: incubation in KRBH (1 mM glucose, 30 minutes) followed by medium collection, incubation in KRBH (11 mM glucose, 30 minutes) followed by medium collection.

## CC(=O)OCC(N)(COC(C)=O)COC(C)=O [WCDD301, 2-(acetoxymethyl)-2-aminopropane-1,3-diyl diacetate]
[1]; NOD mice
  Development of diabetes, prophylactic administration: appears to prevent the development of diabetes in NOD mice
[1]; Age (week) 10
  Blood glucose (Supplemental Figure 6B): 127 and 120 and 125 and 115 and 118
[1]; Age (week) 19
  Blood glucose (Supplemental Figure 6B): 128 and 122 and 121 and 112 and 126
[1]; nondiabetic NOD mice, Supplemental Figure 6B
  Effect on euglycemia: nor did it affect euglycemia
[2]; dispersed mouse islet cells
  Effect on intracellular F-actin: increased intracellular F-actin intensity
[2]; mouse cells, individual values, Figure 3F
  F-actin intensity: 7.9 and 8.3 and 9.3 and 13.4 and 7.5 and 18.4 and 8.1 and 17.0
[3]; 4-week dosing
  Effect on hyperglycemia: normalized hyperglycemia
[3]; Week 1, per mouse, before dosing 277-300, Figure 6F
  Blood glucose: 205 and 210 and 206 and 240
[3]; Week 2, per mouse, Figure 6F
  Blood glucose: 180 and 170 and 145 and 210
[3]; Week 3, per mouse, Figure 6F
  Blood glucose: 145 and 150 and 135 and 156
[3]; Week 4, per mouse, Figure 6F
  Blood glucose: 125 and 119 and 121 and 130
[4]; dispersed mouse islet cells
  Effect on EphA4 intensity: increased EphA4 intensity
[4]; mouse cells, individual values, Figure 3H
  EphA4 intensity: 35.0 and 29.0 and 43.3 and 17.8 and 36.0 and 30.0 and 27.0 and 37.0 and 31.0 and 41.7 and 27.2 and 38.0 and 32.0 and 32.1 and 39.0 and 33.0 and 19.7
[5]; Day 1
  Daily food intake (Figure 7E): 188.5 and 161.1 and 187.4 and 162.1
[5]; Day 2
  Daily food intake (Figure 7E): 210.5 and 168.9 and 209.3 and 170
[5]; Day 3
  Daily food intake (Figure 7E): 184.2 and 168.9 and 183.1 and 170
[5]; Day 4
  Daily food intake (Figure 7E): 192.5 and 167.7
[5]; Day 7
  Daily food intake (Figure 7E): 203.2 and 168.3 and 202 and 169.4
[5]; Day 8
  Daily food intake (Figure 7E): 200 and 184.4 and 198.8 and 185.5
[5]; Day 9
  Daily food intake (Figure 7E): 226.3 and 184.4 and 225 and 185.5
[5]; Day 10
  Daily food intake (Figure 7E): 211.6 and 161.9 and 188.3 and 170.8
[5]; Day 11
  Daily food intake (Figure 7E): 185.1 and 169.8 and 210.3 and 170.8
[5]; Day 12
  Daily food intake (Figure 7E): 193.5 and 169.8 and 184 and 169.5
[5]; Day 13
  Daily food intake (Figure 7E): 182.7 and 168.5 and 192.3 and 160.2
[5]; Day 14
  Daily food intake (Figure 7E): 191.2 and 159.2 and 181.6
[5]; Day 15
  Daily food intake (Figure 7E): 204.2 and 190.1 and 190 and 170.2
[5]; Day 16
  Daily food intake (Figure 7E): 201 and 169.2 and 203 and 186.4
[5]; Day 17
  Daily food intake (Figure 7E): 227.4 and 185.3 and 199.8 and 186.4
[5]; Day 18
  Daily food intake (Figure 7E): 190.4 and 185.3 and 226.1 and 163.7
[5]; Day 19
  Daily food intake (Figure 7E): 212.6 and 162.7 and 189.2 and 171.7
[5]; Day 20
  Daily food intake (Figure 7E): 186.1 and 170.6 and 211.4 and 171.7
[5]; Day 21
  Daily food intake (Figure 7E): 194.4 and 170.6 and 184.9 and 170.4
[5]; Day 22
  Daily food intake (Figure 7E): 183.6 and 169.3 and 193.3 and 161
[5]; Day 23
  Daily food intake (Figure 7E): 192.1 and 160 and 182.5 and 192.2
[5]; Day 24
  Daily food intake (Figure 7E): 205.2 and 191 and 171
[5]; Day 25
  Daily food intake (Figure 7E): 202 and 170 and 204 and 187.3
[5]; Day 26
  Daily food intake (Figure 7E): 228.6 and 186.2 and 200.8 and 187.3
[5]; Day 27
  Daily food intake (Figure 7E): 177.9 and 175.1 and 174 and 179
[5]; Day 28
  Daily food intake (Figure 7E): 225.9 and 175.3 and 174.1 and 226.9
[5]; diabetic WCDD301-treated mice
  Food intake, daily monitoring: phenotypes similar to nondiabetic placebo-treated mice
[6]; islets from donors with long-standing T1D
  Effect on insulin secretion: no effect on the minimal residual insulin secretion
[6]; 1 mM glucose
  Secretion of insulin: 0.055 and 0.09
[6]; 11 mM glucose
  Secretion of insulin: 0.07 and 0.06
